Reference: patent US9426996B2, “Use of benzoxaboroles as volatile antimicrobial agents on meats, plants, or plant parts” (AgroFresh Inc., priority 2013, dated 2016)

Columns and labels:
[1] = tested on: Botrytis cinerea; assay: in vivo volatile assay on onion leaves; details: 10 mg/L, 21° C. for 3 days
Procedure: (§1) To test the effect of Compound A (FIG. 1) on vegetables, potato, onion and squash were obtained from a local store, and the surface sterilized with 0.825% sodium hypochlorite (NaOCl). A slice of potato or two leaves of onion were placed in a sterile Petri plate, while whole squash were placed in a sterile 10.8-cup SnapWare airtight container (Model #109842). Each slice of potato was inoculated with 20 μL of a 1×10^5 spores/mL Fusarium sambucinum suspension, while onions were inoculated with 20 μL of a 1×10^6 spores/mL Botrytis cinerea suspension. For inoculation of squash, a small core was removed, and a mycelial plug of Phytophthora capsici was inserted and capped with the core. Compound A was diluted in acetone, and added to a 42.5 mm Whatman #1 filter disk (Cat. No. 1001-042) attached to the inner side of the lid at a rate to achieve a final headspace concentration of 10 mg/L. The acetone was permitted to evaporate for 5 minutes before parafilm sealing the plates or closing the airtight containers. The vegetables were incubated at 21° C. for 3 days, and evaluated for mycelial growth, dry rot, and water-soaked appearance (mm diameter) with results summarized in Table 13.

[2] = tested on: Phytophthora capsici; assay: in vivo volatile assay on squash; details: 10 mg/L, 21° C. for 3 days
Procedure: as §1

[3] = tested on: Alternaria alternata; assay: combination treatment with 1-MCP on tomato; type: in vivo; details: tomatoes
Procedure: Each tomato fruit is wounded three times and inoculated with 1×10^6 spores/mL of Alternaria alternata and then placed in a 117 L Rubbermaid storage box (Cat #2244) with two small fans placed in opposite ends of the container. A 1000 ppb v/v 1-MCP treatment is applied (AgroFresh, Springhouse, Pa.) for 24 hours at 21° C. After completion of the 1-MCP treatment, the tomatoes are removed and placed in a 10.8-cup […] airtight container (Model #109842). […] The tomatoes are incubated for three days at 21° C., then evaluated for an additional three days at 21° C. for disease incidence and severity. Results listed in Table 29 show good activity against Alternaria alternata infection of tomato.

[4] = tested on: Botrytis cinerea; assay: in vivo sublimation bioassay on fruit, 1 mg/L (Example 31); details: for Incidence (%) / Severity (0-4): 1 mg/L sublimed, three day treatment plus three days at 21° C.
Procedure: (§2) To assess the in vivo activity of volatile antimicrobial Compounds A and B (FIG. 1) in fruit, a volatile bioassay is developed using apple, pear, orange, strawberry, grape and blueberry.
(§3) Two apples, 2 oranges, 2 pears, 8 strawberries, 16 grapes or 30 blueberries (per replicate, in duplicate) are placed in a clamshell with the stem end facing up for all fruits except for strawberry (stem end facing downwards). A fresh wound is inoculated with 20 μL 1×10^6 per mL Penicillium expansum spore suspension (apple and pear), 20 μL 1×10^6 per mL Penicillium digitatum spore suspension (orange), and 20 μL (strawberry and grape) or 10 μL (blueberry) of 1×10^6 per mL Botrytis cinerea spore suspension. The clamshells are placed inside a 117 L Rubbermaid storage box (Cat #2244) with lids closed. […] After treatment, fruits are held for an additional three days at 21° C., then evaluated for disease incidence (mm diameter of browning or water-soaked lesions) and pathogen sporulation (mm diameter) for apple, pear and orange, as well as Botrytis cinerea disease incidence (%) and severity (0 to 4) for strawberry, grape and blueberry, with results summarized in Table 30.

[5] = tested on: Penicillium digitatum; assay: as above
Procedure: as §2, §3

[6] = tested on: Penicillium expansum; assay: as above; details: 1 mg/L sublimed, three day treatment plus three days at 21° C.
Procedure: as §2, §3

[7] = tested on: Penicillium digitatum; assay: in vivo contact drench assay on oranges
Procedure: In order to assess the activity of Compound A (FIG. 1) as a contact drench fungicide, an in vivo assay is developed. […] Compound A is dissolved in water to achieve a final treatment solution concentration of 250, 50, or 10 mg/L. The fruit is dipped in Compound A solution for 1 minute and allowed to dry for 1 hour. Fruit wounds are then inoculated with 30 μL of 1×10^6 per mL Penicillium expansum spore suspension (apple) or Penicillium digitatum spore suspension (orange). Clamshells are then placed in a 10.8-cup SnapWare airtight container (Model #109842) and incubated for 3 days at 21° C.

[8] = Orange, 1 mg/L sublimed, three day treatment plus three days at 21° C.

## OB1OCc2cc(F)ccc21 [Compound A]
[1]
  Water soaked: 0 mm
[2]
  Mycelial growth: 1.1 mm
  Water soaked: 5.3 mm
[3]; 0.4 mg/L
  Diameter of the rot (mm): 3.8 mm
[3]; 2 mg/L
  Diameter of the rot (mm): 0.0 mm
[4]; 1 mg/L, volatile fungicide on different hosts
  in vivo antimicrobial control of B. cinerea: 100%
[4]; Blueberry
  Incidence (%): 0.0%
  Severity (0-4): 0.0
[4]; Grape
  Incidence (%): 0.0%
  Severity (0-4): 0.0
[4]; Strawberry
  Incidence (%): 0.0%
  Severity (0-4): 0.0
[5]; 1 mg/L, volatile fungicide
  in vivo antimicrobial control of P. digitatum: 100%
[5]; [8]
  Sporulation (mm): 0.0 mm
  Water soaked lesion: 0.0 mm
[6]; Apple
  Browning (mm): 0.8 mm
  Sporulation (mm): 0.0 mm
[6]; Pear
  Browning (mm): 4.7 mm
  Sporulation (mm): 0.0 mm
[7]; dip 10 mg/L
  Sporulation (mm): 16.6 mm
  Water soaked (mm): 27.5 mm
[7]; dip 50 mg/L
  Sporulation (mm): 12.0 mm
  Water soaked (mm): 18.8 mm
[7]; dip 250 mg/L
  Sporulation (mm): 0.4 mm
  Water soaked (mm): 1.7 mm
